Experiments:
[1] = tested on: SNB79 (glioblastoma); experiment: Cell viability (methylene blue test) with CH11 anti-FasR antibody, SNB79 line; format: cell-based, human
Procedure: (§1) The human lines Jurkat (lymphoid T), SHEP (neuroblastoma) transfected with a control vector or with a bcl-2 or bcl-XL vector, 143N2 (osteosarcoma) and SNB79 (glioblastoma) were cultured in DMEM or RPMI 1640 (Sigma Chemical Co., St Louis, Mo.) supplemented with FCS 10% (Dutscher, Brumath, France), penicillin G (10^2 IU/mI)+streptomycin (50 μg/ml) (Sigma) and L-glutamine ([…], Sigma).
(§2) The cells were cultured in the presence of anti-Fas receptor antibody CH11 (1 μg/ml; Immunotech, Marseilles, France) concomitantly or after exposure to RO5-4864 (BioBlock Scientific, Illkirch, France), diazepam (Roche, Neuilly sur Seine, France), or PK11195 (BioBlock), at various concentrations.
(§3) Cell viability was measured by testing with methylene blue (Dimanche-Boitrel et al., 1992).
4. FIG. 4: culture of the SNB79 line in the presence of CH11 with (•) or without (o) RO5-4864. Evaluation of cell viability (test with methylene blue; percentage of cells on the ordinate), as a function of the concentration (μM) of Ro5-4864.

[2] = tested on: Jurkat (lymphoid T); experiment: Quantification of apoptosis in Jurkat cells cultured with anti-Fas receptor antibody CH11 and PBR ligands; format: cell-based, human; details: for potentiation of the apoptotic effect of the CH11 anti-FasR antibody: FIGS. 1A and 1B; for proportion of subdiploid (apoptotic) cells: ligand at 60 μM in combination with CH11 anti-FasR antibody
Procedure: as §1, §2
Lipophilic fluorochrome DiOC6(3) (Molecular Probes, Eugene, Oreg.) was used for measuring the membrane potential of the mitochondria (Δψm). Briefly, the cells were incubated for 15 min at 37° C. in the presence of 40 nM of DiOC6(3), with immediate analysis of the incorporation of fluorescence on a type Epics Profile II cytofluorometer (Coulter, Miami, Fla.). Hydroethydine (HE) (2 μM, 15 min at 37° C., Molecular Probes) was used for measuring the production of superoxide anion (Marchetti et al., 1996). Finally, the proportion of cells that had lost part of the chromosomal DNA (subdiploid cells) was determined with propidium iodide on cells fixed in ethanol (Nicoletti et al., 1991).
1. FIG. 1: culture of Jurkat cells in the presence of CH11 with (white histograms) or without (black histograms) RO5-4864, PK11195 or diazepam.

[3] = tested on: 143N2 (osteosarcoma); experiment: Cell viability (methylene blue test) with CH11 anti-FasR antibody, 143N2 line; format: cell-based, human
Procedure: as §1, §2, §3
3. FIG. 3: culture of the 143N2 line in the presence of CH11 with (black histograms) or without (grey histograms) RO5-4864, PK11195 or diazepam. Evaluation of cell viability (test with methylene blue; percentage of cells on ordinate), as a function of the concentration of RO5-4864 (100 μM or RO 100, 200 μM or RO 200), PK11195 (50 μM or PK50, 80 μM or PK 80) and DIAZEPAM (50 μM or DIA50, 80 μM or DIA80).

[4] = tested on: SHEP-control (neuroblastoma transfected with a control vector); experiment: Cell viability (methylene blue test) with CH11 anti-FasR antibody, SHEP-control line; format: cell-based, human
Procedure: as §1, §2, §3
(§4) 2. FIG. 2: culture of the SHEP control lines (SHEP.control), of SHEP lines transfected with bcl2 (SHEP.Bcl2), and of SHEP lines transfected with bclXL (SHEP.BClXL), in the presence of CH11 with (black histograms) or without (grey histograms) RO5-4864. Evaluation of cell viability (test with methylene blue; percentage of cells on ordinate), as a function of the concentration of RO5-4864 (0, 100 μM or RO100, 200 μM or RO 200).

[5] = tested on: SHEP-bcl-2; experiment: Cell viability (methylene blue test) with CH11 anti-FasR antibody, SHEP-bcl-2 line; format: cell-based, human
Procedure: as §1, §2, §3, §4

[6] = tested on: SHEP bcl-XL; experiment: Cell viability (methylene blue test) with CH11 anti-FasR antibody, SHEP bcl-XL line; format: cell-based, human
Procedure: as §1, §2, §3, §4

[7] = tested on: SCLC6 small-cell bronchial carcinoma; experiment: SCLC6 human tumour xenotransplanted in nude mice, tumour growth; format: in vivo, mouse; details: etoposide 12 mg/kg/day + ifosfamide 90 mg/kg/day D1 to D3 + RO5-4864 40 mg/kg/day D1 to D3, p<0.05
[8] = tested on: SCLC61 small-cell bronchial carcinoma; experiment: SCLC61 human tumour xenotransplanted in nude mice, tumour growth; format: in vivo, mouse

| Compound | reversal of resistance to the CH11 anti-FasR antibody [1] | potentiation of the apoptotic effect of the CH11 anti-FasR antibody [2] | proportion of subdiploid (apoptotic) cells [2] [%] | reversal of resistance to the CH11 anti-FasR antibody [3] | reversal of resistance to the CH11 anti-FasR antibody [4] | reversal of resistance to the CH11 anti-FasR antibody [5] | reversal of resistance to the CH11 anti-FasR antibody [6] | antitumour effect of the chemotherapy with RO5-4864 [7] | tumour growth ([8]; RO5-4864 alone, 12 mg/kg/day s.c. D1 to D3) | antitumour effect of etoposide with concomitant RO5-4864 ([8]; etoposide 12 mg/kg/day i.p. D1 to D3 + RO5-4864 12 mg/kg/day s.c. D1 to D3, p<0.005) |
| --- | --- | --- | --- | --- | --- | --- | --- | --- | --- | --- |
| CCC(C)N(C)C(=O)c1cc2ccccc2c(-c2ccccc2Cl)n1 (stereo not drawn) [PK11195] | only observed with diazepam and PK11195 on the line SHEP-control | potentiate the apoptotic effect | 25 | only observed with diazepam and PK11195 on the line SHEP-control | observed | only observed with diazepam and PK11195 on the line SHEP-control | only observed with diazepam and PK11195 on the line SHEP-control |  |  |  |
| CN1C(=O)CN=C(c2ccccc2)c2cc(Cl)ccc21 [diazepam] | only observed with diazepam and PK11195 on the line SHEP-control | potentiate the apoptotic effect | 20 | only observed with diazepam and PK11195 on the line SHEP-control | observed | only observed with diazepam and PK11195 on the line SHEP-control | only observed with diazepam and PK11195 on the line SHEP-control |  |  |  |
| CN1C(=O)CN=C(c2ccc(Cl)cc2)c2cc(Cl)ccc21 [RO5-4864, 4′-chlorodiazepam] | reverses the resistance | potentiate the apoptotic effect | 73 | reverses the resistance | reverses the resistance | reverses the resistance | reverses the resistance | increased | not altered | increased |

Source: patent US20030166598A1, “Medicines for treating tumoral pathologies containing the ro5-4864 compound and an apoptosis-inducing agent” (priority 2000, published 2003)
